From PMC8876603, “New Blood Coagulation Factor XIIa Inhibitors: Molecular Modeling, Synthesis, and Experimental Confirmation” (Molecules, 2022)
Where “and” joins values, the source holds several entries; their conditions need not be identical. Equal values may be shown once. Read-outs that look alike come from different tables or passages of the source.

Experiments:
[1] = target: T1, factor XIIa (Homo sapiens, UniProt P00748); assay: Inhibition of factor XIIa: kinetics of hydrolysis of chromogenic substrate S2302; type: biochemical; settings: for inhibition at 30 µM: read-out: Inhibition Activity at 30 µM, %; for Selectivity for factor XIIa over coagulation factors Xa and XIa: from IC50 values of Figure 5; for IC50: substrate S2302, competitive inhibitor fit
T1 sequence (P00748 373-615 limits assumed, other chains not shown): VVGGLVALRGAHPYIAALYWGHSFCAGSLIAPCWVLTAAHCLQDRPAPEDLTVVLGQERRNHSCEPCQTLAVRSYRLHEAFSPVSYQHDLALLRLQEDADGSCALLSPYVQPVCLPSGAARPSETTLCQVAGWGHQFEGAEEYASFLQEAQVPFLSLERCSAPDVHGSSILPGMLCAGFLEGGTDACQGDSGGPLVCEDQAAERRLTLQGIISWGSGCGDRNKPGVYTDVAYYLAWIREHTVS
Procedure: (§1) The inhibition of factor XIIa by the synthesized compounds was studied by measuring the kinetics of hydrolysis of specific substrate S2302 (Chromogenics, Italy) in the presence of these compounds. A buffer containing 140 mM NaCl, 20 mM HEPES and 0.1% PEG 6000 (pH 7.4) was placed in the wells of a 96-well plate, followed by the addition of factor XIIa (final concentration 5 nM), solution of the test compound in DMSO (final concentration 30 μM), and substrate S2302 (Chromogenics, Italy) (final concentration 200 μM). The DMSO content in the well was no more than 2%. The kinetics of the formation of pNa were measured using a THERMOmax Microplate Reader (Molecular Devices Corporation, USA) by the absorption of light with a wavelength of 405 nm. The initial rate of substrate degradation was determined from the initial slope of the pNa formation curve. The rate of substrate degradation by the enzyme in the presence of the inhibitor was expressed as a percentage relative to the rate of substrate degradation in the absence of the inhibitor. The data obtained were processed using the GraphPad Prism and OriginPro 8 software. Ratio of specific substrate cleavage (S2302 for factor XIIa and S2765 for factor Xa) rate in presence of different inhibitor concentrations to these and the cleavage rate without inhibitor were determined to calculate IC50 values. Received curves (see Figures S18–S22) were approximated with the assumption that these were competitive inhibitors.

[2] = target: factor XIa (Homo sapiens, UniProt P03951); assay: Inhibition of factor XIa (off-target selectivity testing); type: biochemical; settings: >30 = no activity at 30 µM, IC50 not measured
factor XIa, sequence (P03951 388-625 limits assumed): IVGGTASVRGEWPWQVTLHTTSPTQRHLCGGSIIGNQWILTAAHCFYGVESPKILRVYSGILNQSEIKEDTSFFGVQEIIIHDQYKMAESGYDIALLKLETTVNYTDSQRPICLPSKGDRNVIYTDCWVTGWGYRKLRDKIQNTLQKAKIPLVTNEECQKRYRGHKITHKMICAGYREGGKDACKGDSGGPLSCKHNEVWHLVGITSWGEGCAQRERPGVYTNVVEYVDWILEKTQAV
factor XIa, sequence (P03951 19-387 partner limits assumed): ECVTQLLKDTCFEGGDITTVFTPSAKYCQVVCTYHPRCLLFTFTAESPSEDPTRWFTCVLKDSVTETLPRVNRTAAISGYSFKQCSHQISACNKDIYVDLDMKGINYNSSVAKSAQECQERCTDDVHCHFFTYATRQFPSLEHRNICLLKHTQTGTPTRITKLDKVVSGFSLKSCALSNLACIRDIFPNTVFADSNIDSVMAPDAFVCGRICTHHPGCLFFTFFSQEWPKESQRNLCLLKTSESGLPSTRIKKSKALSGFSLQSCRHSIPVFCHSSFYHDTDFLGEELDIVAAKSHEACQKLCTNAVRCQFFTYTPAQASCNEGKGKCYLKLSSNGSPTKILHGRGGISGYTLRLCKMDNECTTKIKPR
Procedure: At the first stage, virtual screening based on docking was carried out by the SOL program and the subsequent calculation of the enthalpy of protein–ligand binding by the PM7+COSMO method for the focused library of compounds selected from the database of druglike substances of the Department of Organic Chemistry of the Voronezh State University (VSU). This library consisted of 59 compounds, which were all previously tested against coagulation factors Xa and XIa. Among them, there were a few confirmed inhibitors of these proteins with micromolar activity. The presence of inhibition data for these off-targets allowed us to use selectivity data after the screening phase and better understand the quality of the identified hit series. Screening and testing the selected compounds from the focused library also helped clarify the threshold values of the scoring function of the SOL program, the binding enthalpy and, accordingly, adjust the screening process for further iterations.Virtual screening with the SOL program was carried out for 326 three-dimensional molecules. The original base of 59 ligands was expanded taking into account a few protomers, isomers, and conformers of these molecules. At the first stage, the selection of compounds was carried out based on the SOL scoring function. […] Note that the SOL scoring value for the docking of the original ligand (PDB ID 6B74) was −5.19 kcal/mol. Thus, the selection criterion covered a wider range of scoring values.
(§2) Figure 5 Structures of four identified inhibitors of the coagulation factor XIIa. IC50 values are shown for three coagulation factors: Xa, XIa, and XIIa. […] So, they are marked with ‘>30’ in a column with activity values. TEXT PRINTED IN THE PICTURE: 30901: IC50, μM: XIIa 19.67±1.31; IC50, μM: XIa > 30.00; IC50, μM: Xa 12.40±0.38 | 41453: IC50, μM: XIIa 25.88±1.77; IC50, μM: XIa > 30.00; IC50, μM: Xa > 30.00 | 225006: IC50, μM: XIIa 7.85±0.34; IC50, μM: XIa > 30.00; IC50, μM: Xa > 30.00 | 225738: IC50, μM: XIIa 12.95±0.32; IC50, μM: XIa > 30.00; IC50, μM: Xa > 30.00

[3] = target: factor Xa (Homo sapiens, UniProt P00742); assay: Inhibition of factor Xa: cleavage rate of specific substrate S2765; type: biochemical; settings: >30 = no activity at 30 µM, IC50 not measured
factor Xa, sequence (P00742 235-488 limits assumed): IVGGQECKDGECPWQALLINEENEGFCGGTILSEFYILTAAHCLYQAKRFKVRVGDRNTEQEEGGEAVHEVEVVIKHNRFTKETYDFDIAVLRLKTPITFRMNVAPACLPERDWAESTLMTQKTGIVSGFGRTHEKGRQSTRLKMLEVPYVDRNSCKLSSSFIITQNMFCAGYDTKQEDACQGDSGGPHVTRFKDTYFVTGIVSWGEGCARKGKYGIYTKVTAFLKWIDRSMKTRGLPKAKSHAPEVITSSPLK
factor Xa, sequence (P00742 41-179 partner limits assumed): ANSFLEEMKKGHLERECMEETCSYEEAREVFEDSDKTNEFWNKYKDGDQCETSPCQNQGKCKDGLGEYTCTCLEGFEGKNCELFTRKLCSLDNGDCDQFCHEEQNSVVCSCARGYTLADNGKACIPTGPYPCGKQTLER
Procedure: as §1, §2

[4] = target: T1, factor XIIa; settings: read-out: IC50 factor XIIa (aminotriazole-based inhibitors); cited from earlier work
[5] = % of enzyme inhibition at 30 µM, averaged over three measurements

| inhibition at 30 µM [1, 5] [%] | IC50 [1] | IC50 [2] [µM] | IC50 [3] [µM] | SMILES | other results |
| --- | --- | --- | --- | --- | --- |
| 0 |  |  |  | COc1cc2c3c(c1)C(=NNC(=N)N)C(=O)N3C(C)(C)C=C2C [compound 225635, 2-(8-Methoxy-4,4,6-trimethyl-2-oxo-4H-pyrrolo[3,2,1-ij]quinolin-1(2H)-ylidene)hydrazinecarboximidamide] |  |
| > 50 | 7.9 µM and 7.85 µM | > 30 | > 30 | CC1CC(C)(C)N(C)c2cc3oc(=O)c(-c4cc(=O)[nH]c(N5CCOCC5)n4)cc3cc21 (centres unmarked) [compound 225006, 6,8,8,9-Tetramethyl-3-(2-morpholin-4-yl-6-oxo-1,6-dihydropyrimidin-4-yl)-6,7,8,9-tetrahydro-2H-pyrano[3,2-g]quinolin-2-one] | Selectivity for factor XIIa over coagulation factors Xa and XIa [1]: selectively inhibit |
|  |  |  |  | Nc1nc(-c2cnc3ccccc3n2)nn1C(=O)c1cccc2ccccc12 [aminotriazole_39b] | IC50 [4]: 0.007 µM |
| 27 |  |  |  | COc1cc2c3c(c1)C(=NNC(=N)N)C(=O)N3C(C)(C)C=C2CN1CCN(c2ccc(F)cc2)CC1 [compound 225638, 2-[6-{[4-(4-Fluorophenyl)piperazin-1-yl]methyl}-8-methoxy-4,4-dimethyl-2-oxo-4H-pyrrolo[3,2,1-ij]quinolin-1(2H)-ylidene]hydrazinecarboximidamide] |  |
| 0 |  |  |  | COc1ccc(C(=O)c2cc3cc4c(cc3oc2=O)N(C)C(C)(C)CC4C)cc1 (centres unmarked) [compound 224870, 3-(4-Methoxybenzoyl)-6,8,8,9-tetramethyl-6,7,8,9-tetrahydro-2H-pyrano[3,2-g]quinolin-2-one] |  |
| 0 |  |  |  | COc1cc2c3c(c1)/C(=N/OC(=O)c1ccccc1)C(=O)N3C(C)(C)C=C2C [compound 225746, 8-Methoxy-4,4,6-trimethyl-4H-pyrrolo[3,2,1-ij]quinoline-1,2-dione1-(O-benzoyloxime)] |  |
| 0 |  |  |  | CC1CCc2nc3oc(-c4ccccc4)cc3c(N)c2C1 (centres unmarked) [compound 224530, 6-Methyl-2-phenyl-5,6,7,8-tetrahydrofuro[2,3-b]quinolin-4-amine] |  |
| 15 |  |  |  | COc1ccc(C2C(C#N)=C(N)Oc3c2c(=O)[nH]c2ccccc32)cc1OC (centres unmarked) [compound 38756, 2-Amino-4-(3,4-dimethoxyphenyl)-5-oxo-5,6-dihydro-4H-pyrano[3,2-c]quinoline-3-carbonitrile] |  |
|  | 19.7 ± 1.31 µM | > 30 | 12.4 ± 0.38 | COc1cc2c3c(c1)C1(C(=O)N3C(C)(C)CC2C)C(C#N)=C(N)Oc2c1c(=O)oc1ccccc21 (centres unmarked) [compound 30901, 2-amino-8’-methoxy-4’,4’,6’-trimethyl-2’,5-dioxo-5’,6’-dihydro-2’H,4’H,5H-spiro[pyrano[3,2-c]chromene-4,1’-pyrrolo[3,2,1-ij]quinoline]-3-carbonitrile] |  |
|  |  |  |  | Nc1c2c(nc3oc(-c4ccccc4Cl)cc13)CCCC2=O [compound 224533, 4-Amino-2-(2-chlorophenyl)-7,8-dihydrofuro[2,3-b]quinolin-5(6H)-one] | inhibition at 30 µM [1]: 2% |
| 10 |  |  |  | CCc1cc2c3c(c1)C1(C(=O)N3C(C)(C)CC2C)C(C#N)=C(N)Oc2c1c(=O)[nH]c1ccccc21 (centres unmarked) [compound 38292, 2-Amino-8’-ethyl-4’,4’,6’-trimethyl-2’,5-dioxo-5,5’,6,6’-tetrahydro-4’H-spiro[pyrano[3,2-c]quinoline-4,1’-pyrrolo[3,2,1-ij]quinoline]-3-carbonitrile] |  |
| > 50 | 13 ± 0.32 µM | > 30 | > 30 | COC(=O)c1c(C)[nH]c(-c2ccccc2)c1C1C(=O)N2c3c(cc(OC)cc31)C(C)=CC2(C)C (centres unmarked) [compound 225738, methyl 4-(8-methoxy-4,4,6-trimethyl-2-oxo-1,2-dihydro-4H-pyrrolo[3,2,1-ij]quinolin-1-yl)-2-methyl-5-phenyl-1H-pyrrole-3-carboxylate] | Selectivity for factor XIIa over coagulation factors Xa and XIa [1]: selectively inhibit |
|  | ~26 µM and 25.9 µM | > 30 | > 30 | CC1(C)CC2(CCCCC2)N2C(=O)C3(NCCc4c3[nH]c3ccccc43)c3cccc1c32 (stereo not drawn) [compound 41453, 6’,6’-Dimethyl-2,3,4,5’,6’,9-hexahydrodispiro[β-carboline-1,1’-pyrrolo[3,2,1-ij]quinoline-4’,1’’-cyclohexan]-2’-one] | Selectivity for factor XIIa over coagulation factors Xa and XIa [1]: questionable |
